Values quoted from earlier work as cited in patent US6872408B2, “Method of treating bipolar disorders using deuterium-substituted carbonate” (priority 2001, dated 2005).

Assays:
patients = patients treated for mania
biological clock = conditions: in vivo
deer mice = conditions: increasing ratio of D2O to H2O in drinking water
[1] = test system: patients with bipolar disorder

CCCC(CCC)C(=O)O [DEPAKOTE, valproic acid]
side effect (patients): frequently causes blood dyscrasias

[2H]O[2H] [Deuterium oxide]
effect on length of the biological clock (biological clock): lengthen the biological clock | effect on the period and entrainment of the light-dark (LD) cycle (mice): chronomutagenic effect | effect of D2O on the biological clock (deer mice): dose dependent and reversible | spontaneous locomotor activity (mouse): suppressed

CCO [ethanol]
effect on length of the biological clock (biological clock): lengthen the biological clock

[Li] [lithium]
time for effects to take affect ([1]; patients with bipolar disorder): up to 2 weeks | patients receiving beneficial effects ([1]; patients with bipolar disorder prescribed lithium): up to 80%

CC(C)[C@@H]1NC(=O)[C@H](C)OC(=O)[C@@H](C(C)C)NC(=O)[C@@H](C(C)C)OC(=O)[C@H](C(C)C)NC(=O)[C@H](C)OC(=O)[C@@H](C(C)C)NC(=O)[C@@H](C(C)C)OC(=O)[C@H](C(C)C)NC(=O)[C@H](C)OC(=O)[C@@H](C(C)C)NC(=O)[C@@H](C(C)C)OC1=O [valinomycin]
effect on length of the biological clock (biological clock): lengthen the biological clock

lithium salts
effect on length of the biological clock (biological clock): lengthen the biological clock
